According to patent EP0498705A1, “Phenol ethers derivatives, their preparation and their therapeutical use” (SYNTHELABO, priority 1991, dated 1992):

Assays:
Rat amyélé = test: Partial β-agonist activity in vivo: heart rate increase in the pithed rat after cumulative i.v. doses; conditions: for ED (50 beats per minute increase): iv, dose giving a heart rate increase of 50 beats per minute, pithed rat, i.v., read-out: DE₅₀; for augmentation maximale de fréquence cardiaque (effet agoniste partiel): pithed anaesthetised rat, cumulative i.v. doses
Experimental: 2. Propriétés β-agonistes partielles des isomères (S)(-) et (R)(+) du cicloprolol.
L'activité β-agoniste partielle des deux énantiomères du cicloprolol, a été étudiée in vivo chez le Rat amyélé. Des rats (Spraque-Dawley; Charles River, France) mâles de 250 g environ sont anesthésiés au pentobarbital sodique (55 mg/kg i.p.), amyélés puis placés sous respiration artificielle. La pression artérielle est captée par voie sanglante au niveau de la carotide et l'onde pulsatile alimente un tachographe gui permet de mesurer la fréquence cardiaque. Les composés sont injectés par voie intraveineuse au niveau de la veine fémorale. Ces rats amyélés présentent une fréquence cardiaque réduite d'environ 30 % par rapport à celle de rats intacts anesthésiés. L'activité agoniste partielle des énantiomères est déterminée par l'injection de doses cumulatives des énantiomères. On détermine la dose permettant une augmentation de la fréquence cardiaque de 50 battements par minute (DE₅₀) ainsi que le maximum de l'effet.

[1] = biological target: T1, récepteurs β₁ adrénergiques (Cavia porcellus, UniProt H0W3H1); test: Blockade of β1 adrenergic receptors in vitro: isoprenaline concentration-effect curves on atrial rate of isolated right atria (Schild analysis); format: cell-based, cobaye; conditions: for déplacement des courbes concentration-effet à l'isoprénaline: R(+) at 0,3, 1, 3 µM, S(-) at 0,1, 0,3, 1 µM, 30 min before the second curve; for Kb: Schild method, antagonism of isoprenaline on atrial rate, isolated guinea pig right atrium, 32°C, confidence interval in brackets, read-out: pA₂ (converted)
T1 construct: L'oreillette droite est séparée du coeur; from tissue; host or cells: isolated right atrium of male guinea pigs
T1 sequence (H0W3H1 1-470): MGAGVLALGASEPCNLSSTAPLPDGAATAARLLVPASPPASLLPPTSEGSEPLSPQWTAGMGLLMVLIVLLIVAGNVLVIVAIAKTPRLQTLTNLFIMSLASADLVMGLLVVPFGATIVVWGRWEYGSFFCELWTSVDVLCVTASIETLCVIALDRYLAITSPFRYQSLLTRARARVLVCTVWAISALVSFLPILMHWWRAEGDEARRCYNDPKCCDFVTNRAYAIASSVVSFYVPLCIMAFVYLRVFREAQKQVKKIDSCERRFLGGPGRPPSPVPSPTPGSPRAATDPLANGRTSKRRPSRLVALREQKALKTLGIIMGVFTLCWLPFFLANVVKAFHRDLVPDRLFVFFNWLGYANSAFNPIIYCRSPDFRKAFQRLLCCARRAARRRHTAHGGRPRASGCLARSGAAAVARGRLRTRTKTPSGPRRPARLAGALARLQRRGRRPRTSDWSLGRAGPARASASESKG
From the text: 1. Efficacité des isomères (S)(-) et (R)(+) du cicloprolol en tant que bloquants des récepteurs β₁ adrénergiques dans des conditions in vitro.
Préparation des oreillettes droites.
Des cobayes mâles (race tricolore : élevage LESSIEUX) pesant 200-250 g sont sacrifiés par dislocation cervicale. Les coeurs sont rapidement retirés de la cage thoracique et placés dans une solution de Krebs dans laquelle barbote un mélange de 95 % de O₂ et 5 % de CO₂. La composition de cette solution en mM est : NaCl 118; KCl 4,7; CaCl₂ 2,6; KH₂PO₄ 1,2; MgCl₂ 1,2; NaHCO₃ 25; glucose 11,7; acide ascorbique 1,0. L'oreillette droite est séparée du coeur. Sa base est attachée à un crochet monté sur un support et son apex à un autre petit crochet auquel un fil est accroché. La préparation est transférée dans un bain à organe contenant 20 ml de solution de Krebs oxygénée à 32°C et le fil est connecté à un transducteur de force (Grass, modèle : FTO3C). Une tension de repos de 0,5 g est appliquée à l'oreillette et les signaux de force contractile servent à déclencher un cardiotachomètre pour mesurer le rythme atrial. La force contractile et le rythme atrial sont enregistrés sur un polygraphe.
Après une période de stabilisation de 50 minutes, le tissu est soumis à une concentration de 0,01 µM d'isoprénaline puis est lavé à plusieurs reprises pendant 20 minutes. Immédiatement après, la courbe concentration-effet complète est déterminée en additionnant au bain des concentrations de plus en plus fortes d'isoprénaline (demi-intervalles de l'échelle logarithmique) jusqu'à ce que le rythme atrial ne puisse plus augmenter davantage. Chaque concentration successive d'isoprénaline est ajoutée quand la réponse à la concentration précédente atteint un état stable apparent. A la fin de cette courbe concentration-effet, la préparation est lavée toutes les 10 minutes, pendant 30 minutes, pour lui laisser retrouver son rythme de battement minimal. Puis, une deuxième courbe de réponse aux concentrations est effectuée 30 minutes après avoir soumis la préparation aux différentes concentrations de R(+)-cicloprolol (0,3; 1; et 3 µM) ou de S(-)-cicloprolol (0,1; 0,3 et 1 µM). Les modifications maximales du rythme atrial engendrées par chaque concentration d'isoprénaline sont exprimées en pourcentage par rapport à la réponse émise lors d'une concentration supramaximale d'isoprénaline. Ces valeurs sont utilisées pour construire la courbe concentration-effet dans un repère semi-logarithmique. Il faut noter que si le rythme initial au début de la seconde courbe concentration-effet diffère de celle de la 1ère courbe, la réponse maximale utilisée pour calculer les pourcentages est déterminée par la différence entre le rythme initial de l'oreillette avant l'initiation de la seconde courbe concentration-effet et le rythme atteint par l'oreillette après l'addition de la plus grande concentration d'isoprénaline lors de la première courbe de réponse.
Le logarithme changé de signe de la concentration d'isoprénaline produisant 50 % de l'effet maximal (pD₂) est calculé pour chaque courbe de réponse avant et après chaque concentration de S(-) ou de R(+)-cicloprolol. Les valeurs logarithmiques (concentration ratio-1) sont portées sur l'ordonnée en fonction du logarithme négatif de la concentration d'antagoniste. (Arunlakshana et Schild, Br. J. Pharmacol. 14, 48-54, 1959). […]

[2] = Cardiac stimulant activity in man; format: in vivo, homme; conditions: no method or data given

With `CC(C)NC[C@@H](O)COc1ccc(OCCOCC2CC2)cc1` [(R)(+)-cicloprolol, (R)-(+)-1-[4-[2(cyclopropylméthoxy)éthoxy]phénoxy]-3-[(1-méthyléthyl)amino]propan-2-ol] the ED (50 beats per minute increase) (Rat amyélé) was 122 ± 2 µg/kg, the “augmentation maximale de fréquence cardiaque (effet agoniste partiel)” value (Rat amyélé) was 113 ± 5 bat/min and the “déplacement des courbes concentration-effet à l'isoprénaline” value [1] was “déplacent vers la droite les courbes concentration-effet à l'isoprénaline de façon parallèle et sans changer la réponse maximale”. It also gave a Kb [1] of 240 nM.

With `CC(C)NC[C@H](O)COc1ccc(OCCOCC2CC2)cc1` [(S)(-)-cicloprolol, (S)-(-)-1-[4-[2-(cyclopropylméthoxy)éthoxy]phénoxy]-3-[(1-méthyléthyl)amino]propan-2-ol] the ED (50 beats per minute increase) (Rat amyélé) was 4.6 ± 0.1 µg/kg, the “augmentation maximale de fréquence cardiaque (effet agoniste partiel)” value (Rat amyélé) was 107 ± 3 bat/min and the “déplacement des courbes concentration-effet à l'isoprénaline” value [1] was “déplacent vers la droite les courbes concentration-effet à l'isoprénaline de façon parallèle et sans changer la réponse maximale”. The Kb [1] was 36.3 nM and the “fois plus puissant que le (R)(+)-cicloprolol, comme antagoniste des récepteurs β₁ adrénergiques” value ([1]; antilog(7,44 - 6,62), ratio of the pA₂ values) was 6,6 fois.

For `CC(C)NCC(O)COc1ccc(OCCOCC2CC2)cc1` (stereo not drawn) [cicloprolol, 1-[4-[2-(cyclopropylméthoxy)éthoxy]phénoxy]-3-[(1-méthyléthyl)amino]propan-2-ol], the activité stimulante cardiaque [2] was “a été confirmée chez l'homme”.

With `CC(C)NCC(O)c1ccc(O)c(O)c1` (stereo not drawn) [isoprénaline, reference compound] the ED (50 beats per minute increase) (Rat amyélé) was 0.02 µg/kg and the “augmentation maximale de fréquence cardiaque (effet agoniste partiel)” value (Rat amyélé) was ~140 bat/min.
